We go through 10 compounds from PubChem BioAssay (NCI).

Molecules are shown by their SMILES.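 The compound was tested at five concentrations on cells cultured in 96-well plates, with a 48-hour exposure period. The concentration for 50% growth inhibition is given as GI50. TGI: total growth inhibition.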

Assay in all cases: inhibition of tumour cell growth, NCI panel, 48 h
Experiment [1] has as its system HL-60(TB) leukemia.
Experiment [2] concerns SK-OV-3 ovarian.
Experiment [3] relates to SF-295 CNS.
For experiment [4], the system named is SR leukemia.
The test system of experiment [5] is UACC-257 melanoma.
Experiment [6] relates to M14 melanoma.
The subject of experiment [7] is SNB-75 CNS.
Experiment [8] has as its system OVCAR-4 ovarian.
Experiment [9] has as its system BT-549 breast.
Experiment [10] has as its system IGROV1 ovarian.

As to `CN(C)CCNc1ccc(CO)c2sc3ccc(O)cc3c(=O)c12`, the TGI in experiment [1] turned out to be 6.13 µM; in experiment [2], 8.29 µM; in experiment [3], 12.1 µM; in experiment [4], 0.78 µM; in experiment [5], 15.7 µM; in experiment [6] it was 16.5 µM. The TGI in experiment [7] is 9.62 µM; in experiment [8], 13.1 µM; in [9], 8.93 µM; in experiment [10] it was 16.4 µM.

Turning to `O=C(Nc1cc(C(F)(F)F)ccc1Cl)c1ccc(NC2=C(Cl)C(=O)N(Cc3ccccc3)C2=O)cc1`, the GI50 was 3.08 µM in [1]; over 100 µM in [2]; 40.1 µM in [3]; 1.3 µM in [4]; 31.7 µM in experiment [5]; 37.6 µM in experiment [6]. The GI50 was 56.1 µM in experiment [7], 47.4 µM in experiment [8], 15 µM in experiment [9] and 1.99 µM in experiment [10]. Besides, the TGI in experiment [1] is 9.33 µM; in [2], over 100 µM; in experiment [3], over 100 µM; in experiment [4], 4.4 µM; in experiment [5], 96.9 µM; in experiment [6], over 100 µM. The TGI in experiment [7] was over 100 µM; in experiment [8] it was over 100 µM; in [9], 39.7 µM; in experiment [10], 6.41 µM.

Consider `CCN(CC)CCCNc1ccc2nc(C)n3c4ccc(O)cc4c(=O)c1c23`, for which the TGI in experiment [1] was over 21.1 µM; in experiment [2], 25.2 µM; in [3], 19.6 µM; in experiment [5] it was 29 µM; in experiment [6], 21.5 µM; in experiment [7], 7.69 µM. For the same compound, the figures for the TGI in experiment [8], in experiment [9] and in experiment [10] were 20.1 µM, 25.6 µM and 9.79 µM, respectively.

Consider `Cc1[nH]nc(C(F)(F)F)c1N=NN(C)C`, for which the TGI in experiment [1] is 42.9 µM; in [2], 25 µM; in experiment [3], 25.7 µM; in experiment [4], 18.8 µM; in experiment [5], 28.2 µM; in experiment [6], 29.7 µM. Besides, the TGI in [9] came out at 24.9 µM.

Take `COc1cc2c(c(OC)c1OC)-c1ncc3c(OC)c(OC)c(OC)cc3c1C2`: the GI50 in experiment [2] was 29.5 µM; in [3], 22 µM; in experiment [6], 39.8 µM; in [7], over 100 µM; in experiment [8], 49.6 µM; in experiment [9], 25.4 µM. Also, in experiment [10], the GI50 was 34.1 µM. The TGI in [2] is 74.9 µM; in [3], 47.1 µM; in [6], over 100 µM; in experiment [7], over 100 µM; in experiment [8] it was over 100 µM; in [9] it was 55.2 µM. This compound also yielded a TGI in experiment [10] of 93 µM.

As to `COc1cc(C2SCCCCCCCCCCSC(c3ccc(O)c(OC)c3)SCCCCCCCCCCS2)ccc1O` (configuration not stated), the TGI in experiment [2], in experiment [3], in experiment [4], in experiment [5], in experiment [6] and in experiment [7] was over 100 µM each time. For the same compound, the TGI in experiment [8], in [9] and in experiment [10] was over 100 µM each time.

`O=C(/C=C/C12c3ccccc3C(c3ccccc31)C1C(=O)NC(=O)C12)c1ccc(Cl)cc1Cl` (configuration not stated): the GI50 in [2] was 2.4 µM; in experiment [3], 1.78 µM; in experiment [4] it was 1.59 µM; in experiment [5] it was 1.76 µM; in [6], 1.83 µM; in [7] it was 1.64 µM. Moreover, the results for the GI50 in experiment [8], in experiment [9] and in experiment [10] were 1.86 µM, 1.66 µM and 1.97 µM, respectively. For the same compound, the TGI in experiment [2] came to 6.71 µM; in experiment [3], 3.63 µM; in [4] it was 4.68 µM; in [5], 3.46 µM; in experiment [6], 3.54 µM; in [7], 3.08 µM. The figures for the TGI in experiment [8], in experiment [9] and in experiment [10] were 3.82 µM, 3.27 µM and 4.27 µM, respectively.

For `COc1ccc2cc(/C=C/C(=O)c3ccc(Cl)cc3Cl)ccc2c1`, the GI50 in experiment [1] is 17.5 µM; in experiment [3], 83.3 µM; in experiment [4] it was 9.19 µM; in [5], 39.5 µM; in [6], 30.5 µM; in experiment [8], 74.1 µM. Also, the GI50 in experiment [9] was 33 µM; in [10] it was 42.9 µM. Moreover, the TGI in experiment [1] is 41 µM; in [3], over 100 µM; in experiment [4], 28.7 µM; in experiment [5], over 100 µM; in [6] it was over 100 µM; in experiment [8], over 100 µM. Further, the TGI was 96.7 µM in experiment [9] and over 100 µM in [10].

Turning to `COc1ccccc1C#Cc1ccccc1C#CCCCCO`, the GI50 in experiment [1] is 50.8 µM; in [2], 17.9 µM; in [3] it was 22.1 µM; in experiment [4], 1.01 µM; in [5], 20.6 µM; in [7] it was 12 µM. The results for the GI50 in [8], in experiment [9] and in experiment [10] were 23.2 µM, 15.5 µM and 15.3 µM, respectively. Besides, the TGI in experiment [1] was over 100 µM; in experiment [2] it was 40.7 µM; in [3] it was 45.1 µM; in [4], 64.4 µM; in experiment [5] it was 38.8 µM; in [7] it was 26.2 µM. Further, the TGI was determined as 63.1 µM in experiment [8], 33.4 µM in [9] and 32.2 µM in experiment [10].

As to `Nc1ccccc1C#C/C=C\C#Cc1ccc(OCCCNC(=O)c2cc3ccccc3[nH]2)cc1`, the GI50 is 4.36 µM in [2]; 12.1 µM in experiment [3]; 23.3 µM in experiment [4]; 13 µM in experiment [5]; 11.2 µM in experiment [7]; 21.4 µM in experiment [8]. Also, the GI50 in experiment [9] was 9.23 µM; in experiment [10] it was 25.5 µM. Further, the TGI in experiment [2] was 33.1 µM; in experiment [3] it was 47.1 µM; in experiment [4] it was 99 µM; in experiment [5] it was 53.3 µM; in experiment [7], 73.3 µM; in experiment [8], over 100 µM. The TGI in experiment [9] and in experiment [10] was over 100 µM in each case.
